Laboratory results reported in patent USRE39616E1, “Aminoindan derivatives” (priority 1996, dated 2007).
Counter-ions that a name gives are not always drawn. Like-named read-outs stand apart in the source and are kept apart here.

Experiments:
MAO-B = molecular target: T1, MAO-B (Rattus norvegicus, UniProt P19643); assay: Inhibition of MAO activity following sub-acute administration to rats; assay type: in vivo; design: from tissue; host or cells: rat brain, liver and intestine; conditions: sc, read-out: % MAO-B inhibition, Intestine, dose head prints 25 mg/kg (6 mg/kg sc) daily for 14 days
T1 sequence (P19643 1-520): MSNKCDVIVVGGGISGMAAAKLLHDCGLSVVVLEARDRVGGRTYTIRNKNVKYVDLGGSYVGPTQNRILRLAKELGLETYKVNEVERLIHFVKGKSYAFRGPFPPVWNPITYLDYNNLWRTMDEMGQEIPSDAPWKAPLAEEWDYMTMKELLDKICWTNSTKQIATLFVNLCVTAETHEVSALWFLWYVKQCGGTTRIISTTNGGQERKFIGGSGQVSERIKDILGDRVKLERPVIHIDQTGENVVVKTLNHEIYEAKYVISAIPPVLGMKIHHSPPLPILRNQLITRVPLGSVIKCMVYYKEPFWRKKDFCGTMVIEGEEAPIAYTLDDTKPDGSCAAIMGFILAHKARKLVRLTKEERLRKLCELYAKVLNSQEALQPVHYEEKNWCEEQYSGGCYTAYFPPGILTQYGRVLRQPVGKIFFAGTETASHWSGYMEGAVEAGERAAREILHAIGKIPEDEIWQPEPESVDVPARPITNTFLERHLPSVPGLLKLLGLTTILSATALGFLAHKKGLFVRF
Protocol: (§1) Substrate concentrations used were 50 μM (PEA) and 1 mM (5-HT).
(§2) Male Sabra mice, weighing 45-50 g were injected with test compound solutions (prepared in 0.9% saline). Each dose was administered to two or three mice. The mice were sacrificed two hours after drug administration or at a time corresponding to the peak AChE inhibition time (see Table 11). The brain and liver were rapidly dissected and stored in appropriate vials on ice. The tissues were weighed, diluted to ½ in sucrose 0.3M and stored at −20° C. before performance of the MAO assay described above. The results given in Table 11 relate to measurements made on brain tissue only.
(§3) Experiments were done in Sprague Dawley male rats. […] At the end of this period animals were sacrificed and MAO levels determined in the brain, liver and intestines.

MAO-A = molecular target: T2, MAO-A (Rattus norvegicus, UniProt P21396); assay: in vivo; assay type: in vivo, rats; design: animals were sacrificed and MAO levels determined in the brain, liver and intestines; from tissue; host or cells: rat brain, liver and intestine; conditions: for % MAO-A inhibition: HCl
T2 sequence (P21396 1-526): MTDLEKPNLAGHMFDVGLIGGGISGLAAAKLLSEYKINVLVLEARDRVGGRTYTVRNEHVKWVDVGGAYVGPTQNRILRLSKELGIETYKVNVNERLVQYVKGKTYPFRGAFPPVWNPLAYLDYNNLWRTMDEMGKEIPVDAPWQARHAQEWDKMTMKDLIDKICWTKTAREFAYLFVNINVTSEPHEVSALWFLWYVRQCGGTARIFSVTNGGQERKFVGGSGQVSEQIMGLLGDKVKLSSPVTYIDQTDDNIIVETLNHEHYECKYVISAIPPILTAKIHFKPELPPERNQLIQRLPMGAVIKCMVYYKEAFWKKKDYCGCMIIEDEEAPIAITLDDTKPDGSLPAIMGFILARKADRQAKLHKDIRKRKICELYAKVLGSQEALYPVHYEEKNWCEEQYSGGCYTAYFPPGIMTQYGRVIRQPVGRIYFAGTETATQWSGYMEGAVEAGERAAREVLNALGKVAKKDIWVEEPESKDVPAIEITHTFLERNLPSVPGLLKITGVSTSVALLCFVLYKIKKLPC
Protocol: as §1, §2, §3

Row | Compound | inhibition at 6 mg/kg (MAO-B) [%] | inhibition at 10 mg/kg (MAO-A; po, read-out: % MAO-A inhibition, Brain, po, 10 mg/kg daily for 14 days, rats) [%] | inhibition at 10 mg/kg (MAO-A; po, read-out: % MAO-A inhibition, Intestine, po, 10 mg/kg daily for 14 days, rats) [%] | inhibition at 10 mg/kg (MAO-A; po, read-out: % MAO-A inhibition, Liver, po, 10 mg/kg daily for 14 days, rats) [%] | inhibition at 6 mg/kg (MAO-A; sc, read-out: % MAO-A inhibition, Brain, sc, 6 mg/kg daily for 14 days, rats) [%] | inhibition at 6 mg/kg (MAO-A; sc, read-out: % MAO-A inhibition, Intestine, sc, 6 mg/kg daily for 14 days, rats) [%] | inhibition at 6 mg/kg (MAO-A; sc, read-out: % MAO-A inhibition, Liver, sc, 6 mg/kg daily for 14 days, rats) [%] | selectivity of MAO inhibition, brain versus periphery (liver, intestines) (MAO-A; in vivo) | % MAO-A inhibition (MAO-A; in vivo, po, 50 mg/kg) [%] | % MAO-A inhibition (MAO-A; in vivo, sc, 25 mg/kg) [%]
1 | C#CCNC1CCc2ccc(OC(=O)N(C)C)cc21 (stereo not shown) [Compound 24, 6-(N,N-Dimethylcarbamyloxy)-N-propargyl aminoindan mesylate] | 0 | 0 | 30 | 10 | 30 | 0 | 0 |  |  | 
2 | C#CCNC1CCc2ccc(OC(=O)N(C)CC)cc21 (stereo not shown) [Compound 25, 6-(N-Me, N-Etcarbamyloxy) N-propargyl aminoindan, HCl] |  |  |  |  |  |  |  | selectivity in inhibiting MAO enzyme sub-types in the brain in preference to the periphery | 25 | 0
